# Experimental data published in publication PMC10743451, “Addressing the Binding Mechanism of the Meprin and TRAF-C Homology Domain of the Speckle-Type POZ Protein Using Protein Engineering” (International Journal of Molecular Sciences, 2023).
# Test system: SPOP MATH domain
# Assay: Linear free energy relationship (LFER) analysis of binding to SPOP MATH wildtype and mutant variants
# Details: LFER over MATH wildtype and mutant variants
# Text: A powerful method used to address the mechanism of binding between ligands is to study the effect of structural perturbation on the transition and ground states. This approach, classically denoted as Leffler or Linear Free Energy Relationship (LFER) analysis, aims at analyzing the correlation of the change in activation free energy to the change in equilibrium free energy; LFER analysis has been used in organic chemistry, protein folding, enzymology, and protein–protein interaction studies to decipher the position of the transition state of a reaction along the reaction coordinates. The analysis of the dependences of the microscopic association and dissociation rate constants over the equilibrium constant of each MATH variant to Puc and MacroH2A are reported in Figure 5.
# Figure 5 Linear free energy relationship for the binding of MATH wildtype and mutant variants to the peptides Puc (panels (A,B)) and MacroH2A (panels (C,D)). Panels (A,C) represent the dependences of the microscopic association rate constant kon on the equilibrium dissociation constant. Panels (B,D) represent the dependences of the microscopic dissociation rate constant koff on the equilibrium dissociation constant. The blue and red dots represent the dependences of kon or koff on the equilibrium dissociation constant (KD), respectively.
Sequence,slope of log koff versus log KD,slope of log kon vs. log KD
DEVTSTTSSS [Puc],0.36 ± 0.09,−0.64 ± 0.09
KAASADSTTEGTPAD [MacroH2A],0.02 ± 0.11,−0.98 ± 0.11
